# How the values were obtained:
# [1] = system: Stat1:Stat1 and Stat3:Stat3 dimers; assay: Dissociation-reassociation analysis of pooled Sf-9 lysates by EMSA; format: biochemical; conditions: 30 min pre-treatment, 30-300 μM PY*LKTK or 3-1000 μM ISS 610, hSIE probe
# Description: (§1) Cytosolic extract preparation and luciferase assays. Cytosolic extract preparation from fibroblasts and luciferase assays were previously described (Turkson, J. et al. (1998); Turkson, J. et al. (1999)). Briefly, after two washes with PBS and equilibration for 5 min with 0.5 ml PBS-0.5 mM EDTA, cells were scraped off the dishes and the cell pellet was obtained by centrifugation (4,500×g, 2 min, 4° C.). Cells were resuspended in 0.4 ml of low-salt HEPES buffer (10 mM HEPES (pH 7.8), 10 mM KCl, 0.1 mM EGTA, 0.1 mM EDTA, 1 mM phenylmethylsulfonyl fluoride, and 1 mM dithiothreitol) for 15 min, lysed by the addition of 20 μl of 10% Nonidet P-40 (NP-40), and centrifuged (10,000×g, 30 s, 4° C.) to obtain the cytosolic supernatant, which was used for luciferase assays (Promega) measured with a luminometer. Cytosolic lysates containing activated Stat3 or Stat1 that were used for dissociation-reassociation analysis were prepared from baculovirus-infected Sf-9 insect cells as previously described (Turkson, J. et al. (2001); Zhang, Y. et al. (2000)). Briefly, cultured dishes of Sf-9 cells were washed twice with ice-cold 1×PBS and then PBS containing 1 mM sodium orthovanadate.
# NIH3T3/v-Ras = format: cell-based, mouse; conditions: 1 mM
# Description: (§2) Cell proliferation, soft-agar growth and Apo-BrdU labeling studies. Proliferating fibroblasts and human tumor cells were counted by phase-contrast microscopy for viable cells (using tyrpan blue exclusion). Colony formation assays in six-well dishes and quantification of colonies by iodonitrotetrazolium violet have been previously described (Turkson, J. et al. (1999)). Treatment of cells with inhibitors was initiated 1 day after seeding cells by adding 75 μl of medium with or without inhibitor, and repeated every two to three days. Apoptosis was measured by Apo-BrdU labeling and following the supplier's (PharMingen; San Diego, Calif.) instructions.
# (§3) Stat3 has an essential role in cell proliferation, and constitutively-active Stat3 is required for growth of transformed and tumor cells that harbor aberrant Stat3 signaling. Studies were performed to determine the effects of the peptidomimetic-mediated inhibition of Stat3 on cell proliferation using trypan blue exclusion for viable cell counts.
# NIH3T3/v-Src = format: cell-based, mouse; conditions: 1 mM, four days
# Description: as §2, §3
# NIH3T3 = format: cell-based, mouse; conditions: 1 mM, normal NIH3T3 cells
# Description: as §2, §3
# Stat3 = Stat3 (Mus musculus, UniProt P42227); format: cell-based; parameters: nuclear extracts (prepared from epidermal growth factor (EGF)-stimulated fibroblasts); endogenous in cells; host or cells: NIH3T3 fibroblasts stimulated with EGF
# [2] = system: Stat3-independent luciferase reporter, pRLSRE; format: cell-based; conditions: 1 mM, Src-transformed mouse cells
# Excerpt: (§4) Plasmids. The Stat3 reporter, pLucTKS3, driving expression of the firefly luciferase gene and the Stat3-independent plasmid, pRLSRE, containing two copies of the serum response element (SRE) from the c-fos promoter (Turkson, J. et al. (1998); Zhang, Y. et al. (2000)) that drives renilla luciferase gene (Promega; Madison, Wis.) expression, have been previously described (Turkson, J. et al. (2001); Turkson, J. et al. (1999)).
# as §1, with “Cytosolic lysates containing activated Stat3 or Stat1 that were used for dissociation-reassociation analysis were prepared from baculovirus-infected Sf-9 insect cells as previously described (Turkson, J. et al. (2001); Zhang, Y. et al. (2000)). Briefly, cultured dishes of Sf-9 cells were washed twice with ice-cold 1×PBS and then PBS containing 1 mM sodium orthovanadate.” left out
# [3] = system: Stat3-dependent luciferase reporter, pLucTKS3; format: cell-based; conditions: 1 mM, Src-transformed mouse cells
# Excerpt: as §4
# as §1, with “Cytosolic lysates containing activated Stat3 or Stat1 that were used for dissociation-reassociation analysis were prepared from baculovirus-infected Sf-9 insect cells as previously described (Turkson, J. et al. (2001); Zhang, Y. et al. (2000)). Briefly, cultured dishes of Sf-9 cells were washed twice with ice-cold 1×PBS and then PBS containing 1 mM sodium orthovanadate.” left out
# Stat3, sequence (P42227 whole entry): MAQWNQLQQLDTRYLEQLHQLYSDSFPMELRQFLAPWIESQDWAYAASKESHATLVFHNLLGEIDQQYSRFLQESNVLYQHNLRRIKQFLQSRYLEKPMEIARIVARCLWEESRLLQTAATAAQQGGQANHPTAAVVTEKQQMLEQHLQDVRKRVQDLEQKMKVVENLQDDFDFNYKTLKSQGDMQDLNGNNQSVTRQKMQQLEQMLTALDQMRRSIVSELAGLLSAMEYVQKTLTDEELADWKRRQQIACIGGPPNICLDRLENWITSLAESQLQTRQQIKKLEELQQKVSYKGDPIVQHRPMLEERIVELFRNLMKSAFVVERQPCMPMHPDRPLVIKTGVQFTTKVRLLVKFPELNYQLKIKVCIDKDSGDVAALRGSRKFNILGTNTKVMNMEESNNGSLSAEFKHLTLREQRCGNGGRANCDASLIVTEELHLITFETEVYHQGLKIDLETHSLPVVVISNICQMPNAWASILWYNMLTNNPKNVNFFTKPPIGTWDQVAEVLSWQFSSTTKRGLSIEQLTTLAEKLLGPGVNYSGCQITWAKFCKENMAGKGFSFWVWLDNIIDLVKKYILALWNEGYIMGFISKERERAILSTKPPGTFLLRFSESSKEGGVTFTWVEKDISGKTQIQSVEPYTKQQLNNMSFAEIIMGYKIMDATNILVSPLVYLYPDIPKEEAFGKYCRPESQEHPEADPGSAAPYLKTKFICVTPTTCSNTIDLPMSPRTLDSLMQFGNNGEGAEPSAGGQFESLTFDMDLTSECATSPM
smiles,measurement,setting,value
CC(C)CC(NC(=O)C(Cc1ccc(OP(=O)(O)O)cc1)NC(=O)c1ccc(C#N)cc1)C(=O)O (stereo not shown) [ISS 610],effect on STAT dimers in mixed Stat1:Stat1 and Stat3:Stat3 lysates,[1],appearance of an additional intermediate band representing Stat1:Stat3 heterodimers
same,cell proliferation,NIH3T3/v-Ras,no effect on cell proliferation
same,cell proliferation,NIH3T3/v-Src,significantly suppresses proliferation
same,cell proliferation,NIH3T3,no effect on cell proliferation
same,ligand (EGF)-induced STAT activation,Stat3,preferential inhibition of activation of Stat3
same,induction of the Stat3-independent luciferase reporter pRLSRE,[2],no effect
same,transcriptional induction of the Stat3-dependent luciferase reporter pLucTKS3,[3],significant suppression
